Results from PMC8869097, “Benzothiazole Derivatives as Multifunctional Antioxidant Agents for Skin Damage: Structure–Activity Relationship of a Scaffold Bearing a Five-Membered Ring System” (Antioxidants, 2022).

Columns and labels:
HEK293T cells = experiment: Cytotoxicity on non-cancerous control cells; format: cell-based; conditions: Homo sapiens, HEK-293T, read-out: IC50 Hek293
Protocol: (§1) A stock solution of the compounds (20 mM in DMSO) was prepared and stored at −18 °C. Then, the compounds were diluted in the cell culture medium and tested starting with the 100 µM concentration as the upper limit. The application of equation (6) allowed to obtain the values of IC50. C1 − [50 − N1%/N2% − N1%] − (C1 − C2),(6) where C1 is the concentration of the compound which inhibits cell proliferation by more than 50%; C2 is the concentration of the compound which inhibits cell proliferation below 50%; N1% represents the number of cells (expressed as a percentage of control without compound) obtained in the presence of C1 and N2% represents the number of cells (as a percentage of control without compound) obtained in the presence of C2.
(§2) Finally, the compounds of this series of benzothiazole derivatives were tested to evaluate their antiproliferative activity in vitro against human T-cell leukemia cell line (CEM), human cervical carcinoma cells (HeLa), human pancreas cancer cells (Mia Paca-2) and human melanoma cells (SK-Mel 5). Non-cancerous HEK293T cells (Normal Kidney Epithelial Cells) were chosen as a control for cytotoxicity and/or selectivity. The results obtained have been summarized in Table 5 (data shown only for the active compounds) and are expressed as IC50 values in μM. The selectivity index (SI) was also reported, determined by comparing the values of IC50 (μM) obtained on healthy cells (HEK 293) with that obtained on tumor cells (CEM, HeLa, Mia-Paca-2 and SK- Mel 5) (Table 5).

Epidermophyton floccosum = experiment: Antidermatophyte activity, plaque growth inhibition; format: cell-based, Epidermophyton floccosum var. floccosum CBS 358.93; conditions: 100 μg/mL, SDA, read-out: % Inhibition Growth E. floccosum
Protocol: (§3) The dermatophytes used in this study were Epidermophyton floccosum var. floccosum (Netherlands) CBS 358.93 strain, Trichophyton tonsurans (Netherlands) CBS 483.76 strain, Trichophyton mentagrophytes (Netherlands) CBS 160.66 strain, Microsporum canis (Iran) CBS 131,110 strain, and Microsporum gypseum (Iran) CBS 130,948 strain. All dermatophytes were maintained at 4 °C as agar slants on SDA. Candida albicans (ATCC 10231) was maintained at 4 °C on SDA plate.
(§4) The in vitro antifungal activity against the five selected dermatophytes was evaluated, as previously described, using the plaque growth inhibition method. All compounds were evaluated at the final concentration of 100 µg/mL. The percentages of growth inhibition according to Equation (5) were calculated as the average of three different experiments. I = [(C − T)/C] × 100%,(5) where I is the percentage value of growth inhibition, C is the measure of the diameter of the control circular mycelial inoculum (mm) and T is the extended diameter of the treated mycelial inoculum (mm).
(§5) All synthesized benzothiazole derivatives were evaluated to evaluate their in vitro antifungal activity against the five pathogenic dermatophytes that cause the most common dermatomycoses: Microsporum gypseum, Microsporum canis, Trichophyton mentagrophytes, Trichophyton tonsurans and Epidermophyton floccosum. All compounds were tested at a concentration of 100 µg/mL in DMSO, to evaluate the ability to inhibit the growth of dermatophyte cultures in Sabouraud Dextrose Agar (SDA). Briefly, room temperature incubation was performed and dermatophyte inhibition assessed by measuring the colony diameter at each disc for 7 days. The results are shown in Table 3 and were determined as the average of three different experiments.

[1] = test system: Trichophyton mentagrophytes; experiment: Antidermatophyte activity, plaque growth inhibition; format: cell-based, Trichophyton mentagrophytes CBS 160.66; conditions: 100 μg/mL, SDA, read-out: % Inhibition Growth T. mentagrophytes
Protocol: as §3, §4, §5

SK-Mel 5 cells = experiment: Antiproliferative activity; format: cell-based; conditions: Homo sapiens, read-out: IC50 SK-Mel5
Protocol: as §1, §2

HeLa cells = experiment: Antiproliferative activity; format: cell-based; conditions: Homo sapiens
Protocol: (§6) Human cervical carcinoma (HeLa) and human CD4+T-lymphoblast (CEM) cells were obtained from ATCC (Middlesex, UK). Human pancreatic carcinoma (Mia-Paca 2) cells were kindly provided by Prof. Anna Karlsson (Karolinska Institute, Stockholm, Sweden). All cell lines were grown in Dulbecco’s modified Eagle’s medium (DMEM; Gibco, Carlsbad, CA, USA), supplemented with 10% fetal bovine serum (FBS, Gibso), 0.01M Hepes (Gibco) and 1 mM sodium pyruvate (Gibco) in a humidified 5% CO2 incubator at 37 °C.
(§7) The cell suspensions of CEM, HeLa and Mia-Paca2 were treated with increasing concentrations of the selected compounds, following the protocol previously reported.
as §1, §2

CEM cells = experiment: Antiproliferative activity; format: cell-based; conditions: Homo sapiens, CCRF-CEM
Protocol: as §6, §7, §1, §2

Mia-Paca2 cells = experiment: Antiproliferative activity; format: cell-based; conditions: Homo sapiens, MIA PaCa-2
Protocol: as §6, §7, §1, §2

[2] = Photostability of formulations after solar simulator irradiation; format: physicochemical; conditions: for photostability of the filter: formulation on PMMA plate, photostable if residual % >= 80
Protocol: The method adopted to determine the photostability has been previously reported. Each plate was prepared as mentioned above and subjected to a solar irradiation quantified as the minimum UVA dose equivalent to an effective erythema radiant exposure. Transmittance of the sunscreen layer was recorded in the range of 290–400 nm before and after exposure to sunlight.
Equations (3) and (4) made it possible to derive the residual percentage of SPF in vitro (% SPFeff.) and UVA-PF (% UVA-PFeff.), respectively, which, if greater than or equal to 80, can categorize a filter as photostable. %SPFeff. = in vitro SPFafter/in vitro SPFbefore × 100(3) %UVA − PFeff. = UVA − PFafter/UVA − PFbefore × 100.(4)
Photostability is a crucial feature to delineate the efficacy and safety profile of a solar formulation. According to the criteria developed by Garoli et al., photodegradation was measured by recording the pre- and post-irradiation transmittance of PMMA plates with finger-coated formulations, applying the dose of UVA necessary to cause erythema.
The residual efficacy after exposure (%) indicates the loss of sun protection after sun exposure. Equations (3) and (4) made it possible to derive the residual percentage of SPF in vitro (% SPFeff.) and UVA-PF (% UVA-PFeff.), respectively, which, if greater than or equal to 80, make a filter to be categorized as photostable, according to regulation. It can be deduced from the data obtained that compounds 8a and 10a were photostable (Figure 2). […] Compound 9a containing furan in position 2 was photo-unstable with SPF and PF-UVA below 80%, and this could be attributable to photo-instability of its conjugated species. The order of photostability that emerged for the benzothiazole derivatives is: thiophene derivatives> pyrrole derivatives> furan derivatives.

Row | melting point | IC50 (SK-Mel 5 cells) | IC50 (HeLa cells) | IC50 (Mia-Paca2 cells) | residual percentage of SPF in vitro (% SPFeff.) ([2]; after irradiation) | residual percentage of UVA-PF (% UVA-PFeff.) ([2]; after irradiation) | photostability of the filter [2] | SMILES | IC50 (HEK293T cells) | inhibition at 100 µg/mL (Epidermophyton floccosum) | inhibition at 100 µg/mL [1] | IC50 (CEM cells)
1 | 103 °C | 98 ± 2 µM | > 100 µM | > 100 µM | below 80% | below 80% | photo-unstable | c1coc(-c2nc3ccccc3s2)c1 [Compound 9a, 2-(Furan-2-Yl)benzothiazole] | > 100 µM | 68.85 ± 0.54% | 54 ± 0.99% | 41 ± 5 µM
2 | 99 °C | 50 ± 5 µM | > 100 µM | > 100 µM | – | – | photostable | c1csc(-c2nc3ccccc3s2)c1 [Compound 10a, 2-(Thiophen-2-Yl)benzothiazole] | > 100 µM | 54.1 ± 0.75% | 61.95 ± 0.44% | 45 ± 3 µM
3 | > 250 °C | > 100 µM | > 100 µM | 13 ± 3 µM | – | – | – | NS(=O)(=O)c1ccc2nc(-c3cccs3)sc2c1 [Compound 10c, 2-(Thiophen-2-Yl)benzothiazole-6-Sulfonamide] | > 100 µM | 10.7 ± 0.31% | 10.92 ± 0.09% | > 100 µM
4 | 132 °C | 41 ± 4 µM | 65 ± 2 µM | 87 ± 18 µM | – | – | photostable | c1c[nH]c(-c2nc3ccccc3s2)c1 [Compound 8a, 2-(1H-Pyrrol-2-Yl)benzothiazole] | 68 ± 14 µM | 26 ± 0.66% | 10 ± 0.51% | > 100 µM
5 | – | 9.7 ± 1.7 µM | 37 µM | 15 ± 9 µM | – | – | – | c1c[nH]c(-c2nc3ccccc3[nH]2)c1 [Lead 10, reference compound] | 31 ± 3 µM | 102 ± 4.92% | 96.3 ± 2.42% | 14 ± 1 µM
